Results reported in paper PMC3492795 (International Journal of Biological Sciences, 2012).
pKd: −log10 of the molar value.

Target: T1, LXRβ (Homo sapiens, UniProt P55055)
T1 sequence (P55055 222-460 limits assumed): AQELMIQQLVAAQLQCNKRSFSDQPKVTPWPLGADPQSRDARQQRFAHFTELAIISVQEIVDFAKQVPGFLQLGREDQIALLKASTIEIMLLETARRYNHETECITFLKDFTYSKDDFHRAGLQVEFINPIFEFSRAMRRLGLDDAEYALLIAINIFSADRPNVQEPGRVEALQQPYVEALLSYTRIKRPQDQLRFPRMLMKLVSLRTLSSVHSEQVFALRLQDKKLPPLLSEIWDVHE
Assay: SPR
Format: binding

pKd: 4.50
SMILES: O=C(O)c1cc(O)c2c(c1)C(=O)c1cccc(O)c1C2=O [RH, 4,5-dihydroxyanthraquinone-2-carboxylic acid]
